Test system: P12-Ichikawa
Experiment: cell viability relative to DMSO control; higher = less cytotoxic
Settings: 48 h
In short: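 Before seeding, each leukemia line was adapted for at least four passages in each medium. NOMO1 or SEM cells (500 cells/well) and P12-Ichikawa cells (1000 cells/well) went into 1536-well plates at 5 μl, then received library compounds in DMSO by pin dosing across 11 threefold concentrations, 47 μM to 0.79 nM. Readout was CellTiter-Glo One luminescence after 48 h at 37°C, and viability is given as a per-plate percentage of DMSO wells, with cell-free wells as background.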

[1] = HPLM + 10% dialyzed FBS, 0.000781 µM
[2] = HPLM + 10% dialyzed FBS, 0.00234 µM
[3] = HPLM + 10% dialyzed FBS, 0.00702 µM
[4] = HPLM + 10% dialyzed FBS, 0.0211 µM
[5] = HPLM + 10% dialyzed FBS, 0.0632 µM
[6] = HPLM + 10% dialyzed FBS, 0.19 µM
[7] = HPLM + 10% dialyzed FBS, 0.569 µM
[8] = HPLM + 10% dialyzed FBS, 1.71 µM
[9] = HPLM + 10% dialyzed FBS, 5.12 µM
[10] = HPLM + 10% dialyzed FBS, 15.4 µM
[11] = HPLM + 10% dialyzed FBS, 46.1 µM
[12] = RPMI 5 mM glucose + 10% FBS, 0.000781 µM
[13] = RPMI 5 mM glucose + 10% FBS, 0.00234 µM
[14] = RPMI 5 mM glucose + 10% FBS, 0.00702 µM
[15] = RPMI 5 mM glucose + 10% FBS, 0.0211 µM
[16] = RPMI 5 mM glucose + 10% FBS, 0.0632 µM
[17] = RPMI 5 mM glucose + 10% FBS, 0.19 µM
[18] = RPMI 5 mM glucose + 10% FBS, 0.569 µM
[19] = RPMI 5 mM glucose + 10% FBS, 1.71 µM
[20] = RPMI 5 mM glucose + 10% FBS, 5.12 µM
[21] = RPMI 5 mM glucose + 10% FBS, 15.4 µM
[22] = RPMI 5 mM glucose + 10% FBS, 46.1 µM
[23] = RPMI 5 mM glucose + 10% dialyzed FBS, 0.000781 µM
[24] = RPMI 5 mM glucose + 10% dialyzed FBS, 0.00234 µM
[25] = RPMI 5 mM glucose + 10% dialyzed FBS, 0.00702 µM
[26] = RPMI 5 mM glucose + 10% dialyzed FBS, 0.0211 µM
[27] = RPMI 5 mM glucose + 10% dialyzed FBS, 0.0632 µM
[28] = RPMI 5 mM glucose + 10% dialyzed FBS, 0.19 µM
[29] = RPMI 5 mM glucose + 10% dialyzed FBS, 0.569 µM
[30] = RPMI 5 mM glucose + 10% dialyzed FBS, 1.71 µM
[31] = RPMI 5 mM glucose + 10% dialyzed FBS, 5.12 µM
[32] = RPMI 5 mM glucose + 10% dialyzed FBS, 15.4 µM
[33] = RPMI 5 mM glucose + 10% dialyzed FBS, 46.1 µM

Compound | cell viability [1] [%] | cell viability [2] [%] | cell viability [3] [%] | cell viability [4] [%] | cell viability [5] [%] | cell viability [6] [%] | cell viability [7] [%] | cell viability [8] [%] | cell viability [9] [%] | cell viability [10] [%] | cell viability [11] [%] | cell viability [12] [%] | cell viability [13] [%] | cell viability [14] [%] | cell viability [15] [%] | cell viability [16] [%] | cell viability [17] [%] | cell viability [18] [%] | cell viability [19] [%] | cell viability [20] [%] | cell viability [21] [%] | cell viability [22] [%] | cell viability [23] [%] | cell viability [24] [%] | cell viability [25] [%] | cell viability [26] [%] | cell viability [27] [%] | cell viability [28] [%] | cell viability [29] [%] | cell viability [30] [%] | cell viability [31] [%] | cell viability [32] [%] | cell viability [33] [%]
COc1cc(N2CCC(O)CC2)ccc1Nc1cc(Nc2ccccc2[S+](=O)([O-])C(C)C)c2cc[nH]c2n1 | 91.6 | 88.2 | 86 | 91.3 | 93 | 85.3 | 78.4 | 85.1 | 84.4 | 84.4 | 80.2 | 78.4 | 85.5 | 85.2 | 85.4 | 87.2 | 88 | 81.3 | 81.8 | 80.8 | 77.4 | 66.9 | 85 | 85.2 | 86.5 | 83.7 | 87.1 | 80.7 | 85 | 83.7 | 85.6 | 78.4 | 77.9
COC(=O)N1CCN(Cc2cccc(NC(=O)Nc3ccc(C)nc3)c2F)CC1 | 94.8 | 102 | 103 | 98.7 | 102 | 94.9 | 97.7 | 94.1 | 91 | 88.7 | 84.8 | 96.6 | 98.7 | 95.8 | 104 | 98.7 | 95.2 | 82.2 | 81.4 | 85.9 | 87.6 | 74.4 | 92.8 | 96 | 87.1 | 93.7 | 89.7 | 84.5 | 84.5 | 78.2 | 81.2 | 81.3 | 69
O=C(Nc1ccc(OC(F)(F)F)cc1)c1sccc1NCc1ccnc2ccccc12 | 112 | 113 | 108 | 116 | 106 | 112 | 41.4 | 12.8 | 10.7 | 8.54 | 7.05 | 106 | 121 | 118 | 120 | 118 | 113 | 102 | 72.6 | 25.9 | 10.3 | 9.62 | 109 | 119 | 111 | 120 | 108 | 103 | 110 | 73.5 | 33.1 | 16.6 | 16.1
O=C1NC(=O)[C@@H](c2cn3c4c(cccc24)CCC3)[C@@H]1c1c[nH]c2ccccc12 | 99 | 96.4 | 103 | 98.7 | 105 | 103 | 93.8 | 56 | 23.3 | 20.7 | 18.5 | 93.1 | 111 | 102 | 107 | 107 | 102 | 90.9 | 48.4 | 11.9 | 17.9 | 14.3 | 105 | 105 | 99.9 | 111 | 117 | 113 | 109 | 78 | 34.6 | 30 | 33.1
Cc1[nH]c(/C=C2\C(=O)Nc3ccc([S+](=O)([O-])N(C)c4cccc(Cl)c4)cc32)c(C)c1C(=O)N1CCN(C)CC1 | 118 | 130 | 124 | 119 | 126 | 127 | 119 | 110 | 111 | 76.7 | 0.631 | – | – | – | – | – | – | – | – | – | – | – | – | – | – | – | – | – | – | – | – | – | –
Clc1ccc(C2(c3ccc(-c4cn[nH]c4)cc3)CCNCC2)cc1 | 91.3 | 94.4 | 101 | 96.8 | 101 | 98 | 92.3 | 89.3 | 73.2 | 57.5 | 59.9 | 86.9 | 94.2 | 85.9 | 91 | 89 | 83.1 | 78.8 | 75.4 | 65.9 | 43.1 | 44.1 | 91 | 92.2 | 90.7 | 87.5 | 95 | 93.5 | 91.8 | 78.7 | 68.5 | 49.7 | 49.7
COc1cc2c(Nc3ccc(NC(=O)c4ccccc4)cc3)ncnc2cc1OCCCN1CCOCC1 | 116 | 123 | 122 | 125 | 131 | 133 | 135 | 125 | 45 | 15 | 15.6 | – | – | – | – | – | – | – | – | – | – | – | – | – | – | – | – | – | – | – | – | – | –
O=C1CSC(=O)N1C(CCc1ccncc1)COc1ccc(-c2cccc([N+](=O)[O-])c2)cc1 (configuration not stated) | 115 | 119 | 122 | 118 | 118 | 115 | 111 | 111 | 95.7 | 108 | 90.1 | 122 | 134 | 116 | 107 | 114 | 91.3 | 99.1 | 110 | 87.4 | 93.7 | 82.3 | – | – | – | – | – | – | – | – | – | – | –
COc1cc2ncnc(-n3nc(-c4ccccn4)nc3N)c2cc1OC | 93.6 | 97.9 | 102 | 99.7 | 95.9 | 103 | 105 | 104 | 88.5 | 96 | 0.508 | 89.2 | 100 | 98.6 | 101 | 98 | 105 | 107 | 102 | 78 | 82.7 | 0.293 | 83.8 | 92.6 | 90 | 81.6 | 93.2 | 107 | 96.2 | 101 | 82.6 | 82.9 | 0.35

From the supplement of paper PMC11451515
